Source: patent US11607422B2, “Uttroside B and derivatives thereof as therapeutics for hepatocellular carcinoma” (Rajiv Gandhi Centre for Biotechnology, an Autonomous …, priority 2016, dated 2023)

Assays:
Type in all cases: cell-based, human
HepG2 cells [1] = assay: Acridine orange staining for acidic vesicular organelles; details: HepG2, cytotoxic concentration, 24 h
Experimental: The presence of acidic vesicles, which are characteristics of autophagosome can be analyzed using this method. Acridine orange stains the nucleus green and the acidic vesicular organellae (AVOs) as red.^32 To detect the presence of AVOs in HepG2 cells, 5×10^3 were seeded in 96 well plates, and treated with Uttroside B and incubated for 24 h. The cells were rinsed with 1× PBS twice. The treated cells were then stained with acridine orange, which was added at a final concentration of 1 μg/mL and incubated for 15 min and immediately photographed using a fluorescent microscope.
FIG. 18 is a representative image showing that Uttroside B induces acidic vacuole formation in HepG2 cells by Acridine orange staining. To further confirm the autophagic induction by Uttroside B in HepG2 cells, the cells were exposed to cytotoxic concentration of Uttroside B for a period of 24 h and stained with Acridine orange dye. AO orange stains nucleus green and acidic vesicular organelle, mainly autophagosome, bright red. It crosses into acidic compartments and becomes protonated. The protonated dye stacks and stacked acridine orange emits in the red range.

HepG2 cells [2] = assay: Cell cycle analysis by flow cytometry (propidium iodide); details: HepG2, 48 h, all concentrations studied
Experimental: FIGS. 3A-3F show Uttroside B induces caspase-dependent apoptosis leading to PARP cleavage in HepG2 cells while being independent of cell cycle. FIGS. 3A-3E are images of Western blots showing caspase activation in HepG2 cells. Whole-cell extracts were prepared after treating HepG2 cells with indicated concentrations of Uttroside B for 48 h, the whole cell lysate was resolved on a 15% gel and subjected to western blotting using antibodies against the caspases 8, 9 & 7 detected by ECL. HepG2 cells were treated with Uttroside B for 48 h at different concentrations and the whole cell lysate was resolved on a 10% gel, immunoblotted against anti-PARP and detected by ECL. […] HepG2 cells were treated with Uttroside B for 48 h, stained with propidium iodide and the cell cycle analysis was done using fluorescence activated cell sorter. Curcumin 25 μM (24 h) is used as positive control.
Flow cytometry: Cell cycle analysis helps in distinguishing the distribution of a population of cells to the different stages of the cycle. Cell cycle analysis using flow cytometry was performed to investigate the cell cycle arrest induced by Uttroside B. Cell cycle analysis is performed by quantitative measurement of nuclear DNA content in a cell by staining DNA with propidium iodide. […]

[3] = test system: autophagy related proteins in HepG2 cells; assay: Western blot of autophagy related proteins in HepG2 cells; details: time dependent
Experimental: Western blot analysis. Approximately 0.5×10^6 cells were grown on 60 mm culture plates and exposed to drugs as indicated for the desired time. The cells were then scraped out, washed in ice cold 1× PBS and pelleted down at 13000 rpm for 2 min. The pelleted cells were suspended in 150 μL of ice-cold whole cell lysis buffer[(20 mMTris of pH 7.4, 250 mM NaCl, 2 mM EDTA, 0.1% Triton, 1 mM DTT (1,4-dithiothreitol), 0.5 mM PMSF, 4 mM sodium orthovanadate, aprotinin (5 mg m/L) and leupeptin (5 mg m/L)] and kept in ice for 30 min, with intermittent vortexing every 5 min. After incubation, the lysate was centrifuged at 13000 rpm for 10 min at 4° C. and the supernatant was collected. The total protein content in the lysate was estimated by Bradford's method, and was then denatured by boiling with 5× loading dye before separating the proteins by SDSpolyacrylamidegel electrophoresis (SDS-PAGE). […]

## C[C@H](CC[C@@]1(O)O[C@H]2C[C@H]3[C@@H]4CC[C@H]5C[C@@H](O[C@@H]6O[C@H](CO)[C@H](O[C@@H]7O[C@H](CO)[C@@H](O)[C@H](O[C@@H]8OC[C@@H](O)[C@H](O)[C@H]8O)[C@H]7O[C@@H]7O[C@H](CO)[C@@H](O)[C@H](O)[C@H]7O)[C@H](O)[C@H]6O)CC[C@]5(C)[C@H]4CC[C@]3(C)[C@H]2[C@@H]1C)CO[C@@H]1O[C@H](CO)[C@@H](O)[C@H](O)[C@H]1O [Uttroside B]
HepG2 cells [1]
  acidic vacuole formation (Acridine orange): AO positivity, a preliminary indication of increased autophagosomes was clearly visible
HepG2 cells [2]
  effect on cell cycle: did not show any significant effect on cell cycle
[3]
  expression of autophagy related proteins, HepG2: induces up-regulation of all autophagy related proteins in a time dependent manner
